What all share (format): in vivo
The subject of experiment [1] is cucumber downy mildew. The experiment can be described thus: Test on preventive effect against cucumber downy mildew. As for the experimental part:
Cucumber (cultivar: Suyo) was cultivated in a polyethylene pot having a diameter of 7.5 cm, and when the cucumber reached two-leaf stage, a drug solution having the respective test compounds adjusted to the predetermined concentrations, was applied in a sufficient amount (20 ml) by means of a spray gun. After the applied solution dried, the cucumber was sprayed and inoculated with a suspension of spores of cucumber downy mildew and kept in a humidified chamber at 20° C. for 4 hours. Thereafter, the cucumber was kept in a thermostatic chamber at 20° C. for 7 days, whereupon the lesion area ratio in the first leaf was investigated, and the control value was obtained by the following formula. Here, the test was carried out in double series.
The lesion area ratio in non-treated area was obtained in the same manner as in the treated area except that instead of the drug solution, water was applied by means of a spray gun. Control value=(b−a)/b×100 where a is the lesion area ratio in treated area, and b is the lesion area ratio in non-treated area.
Further, a theoretical value can be calculated by the Colby formula. If the experimental value is higher than the theoretical value by the Colby formula, the fungicidal composition for agricultural or horticultural use of the present invention has a synergistic effect for controlling the plant disease. In this context, the theoretical values by the Colby formula are also shown in brackets ( ) in Table 1.

For experiment [2], the system named is tomato late blight.
Experiment [3] relates to cucumber downy mildew. The experiment can be described thus: Test on curative effect against cucumber downy mildew. Here is the method: Cucumber (cultivar: Suyo) was cultivated in a polyethylene pot having a diameter of 7.5 cm, and when it reached two-leaf stage, the cucumber was sprayed and inoculated with a suspension of spores of cucumber downy mildew and kept in a humidified chamber at 20° C. for 4 hours. Then, after drying the crop plant, a drug solution having the respective test compounds adjusted to the predetermined concentrations, was applied in a sufficient amount (20 ml) by means of a spray gun. After the sprayed solution dried, it was kept in a thermostatic chamber at 20° C. for 7 days, whereupon the lesion area ratio in the first leaf was investigated, and the control value was obtained by the following formula. Here, the test was carried out in double series.
The lesion area in non-treated area was obtained in the same manner as in the treated area except that instead of the drug solution, water was applied by means of a spray gun. Control value=(b−a)/b×100 where a is the lesion area ratio in treated area, and b is the lesion area ratio in non-treated area.
Further, a theoretical value can be calculated by the Colby formula. If the experimental value is higher than the theoretical value by the Colby formula, the fungicidal composition for agricultural or horticultural use of the present invention has a synergistic effect for controlling the plant disease. In this context, the theoretical values by the Colby formula are also shown in brackets ( ) in Table 2.

Where [4] appears, read: propamocarb hydrochloride 1000 ppm alone (Compound No. 1 0 ppm).
The mark [5] stands for this setting: propamocarb hydrochloride 2000 ppm alone (Compound No. 1 0 ppm).
The mark [6] stands for this setting: propamocarb hydrochloride 4000 ppm alone (Compound No. 1 0 ppm).

Counter-ions that a name gives are not always drawn. Like-named read-outs stand apart in the source and are kept apart here.

`Cc1ccc(-c2c(Cl)nc(C#N)n2S(=O)(=O)N(C)C)cc1` [Compound No. 1, 4-Chloro-2-cyano-1-dimethylsulfamoyl-5-(4-methylphenyl)imidazole]: the figures for the “Control value in the test on preventive effect against cucumber downy mildew” value in experiment [1] (Compound No. 1 0.03 ppm alone (propamocarb hydrochloride 0 ppm)) and in experiment [1] (Compound No. 1 0.13 ppm alone (propamocarb hydrochloride 0 ppm)) were 0 and 90, respectively. In addition, the “Control value in the test on preventive effect against tomato late blight” value in experiment [2] (Compound No. 1 0.5 ppm alone (propamocarb hydrochloride 0 ppm)) came to 67. For the same compound, the “Control value in the test on curative effect against cucumber downy mildew” value amounted to 0 in experiment [3] (Compound No. 1 125 ppm alone (propamocarb hydrochloride 0 ppm)) and 90 in experiment [3] (Compound No. 1 500 ppm alone (propamocarb hydrochloride 0 ppm)).
`CCCOC(=O)NCCCN(C)C` [propamocarb hydrochloride]: the “Control value in the test on preventive effect against cucumber downy mildew” value in experiment [1] (setting [4]) is 0; in experiment [1] (setting [5]) it was 10; in experiment [1] (setting [6]), 30. The “Control value in the test on preventive effect against tomato late blight” value in experiment [2] (setting [4]), in experiment [2] (setting [5]) and in experiment [2] (setting [6]) was 0 in each case. For the same compound, the entries for the “Control value in the test on curative effect against cucumber downy mildew” value in experiment [3] (setting [4]), in experiment [3] (setting [5]) and in experiment [3] (setting [6]) were 10, 20 and 30, respectively.

(Values after patent US7851497B2 (priority 2004, dated 2010).)
